Values quoted from earlier work as cited in US9642356B2, “Maturation or ripening inhibitor release from polymer, fiber, film, sheet or packaging” (Cellresin Technologies, LLC, priority 2009, dated 2017).

What was measured:
[1] = tested on: ethylene binding site
[2] = tested on: ethylene generation

SMILES | blocking of ethylene binding [1] | activity for inhibiting ethylene generation [2]
C1=CCC=C1 [Cyclopentadiene] | effective blocking agent for ethylene binding | 
CC1=CC1 [Example 1-MCP, 1-methylcyclopropene] |  | at least some measurable activity
C=CCC [Example 1-butene, 1-butene] |  | at least some measurable activity
